# Experimental data from patent publication US8258295B2, “Triazine derivatives, compositions containing such derivatives, and methods of treatment of cancer and autoimmune diseases using such derivatives” (Prometic Biosciences Inc., priority 2007, dated 2012).
# Key:
# PC-3 cells = assay: In vitro PC-3 cell adhesion to extracellular matrix components; type: cell-based, human; conditions: different concentrations
# Protocol: An in vitro cell adhesion assay was used to assess the effect of the compounds on cancer cell adhesion. Microtiter 96-well plates were coated for 1 hr at room temperature with […] of adhesive ligands previously diluted to 5 μg/ml for laminin, 10 μg/ml for MATRIGEL™ basement membrane matrix, or 10 μg/ml for collagen in PBS. The wells were blocked with a solution of 1% BSA in PBS (100 μl/well) for 1 hr at 37° C. Subconfluent cultures of PC-3 cells were incubated with a 5 μM solution of calcein-AM for 30 min at 37° C., and then free calcein-AM was washed out (30 min) by incubation of the PC-3 cells in media without calcein-AM. Calcein-AM-labeled cells were trypsinized, washed, and resuspended in adhesion buffer (RPMI-1640, 10% FBS supplemented with 1 mM of MgCl2). Labeled PC-3 cells were preincubated in absence or presence of compounds for 30 min and then a final volume of 100 μl of preincubated cells were allowed to attach at 37° C. in a humidified incubator for 15 min, 30 min, or 60 min at 37° C. Nonattached cells were removed by two washes with PBS and attached cells were lysed with 100 μl of a 1% Triton X-100 solution in PBS. Plates were read on a Tecan GENios Plus fluorescent reader with an excitation wavelength of 485 nm and an emission wavelength of 530 nm. The number of attached cells was calculated based upon standard curves. Nonspecific cell attachment (attachment to wells coated with BSA) was always less than 5%.
# [1] = test system: experimental autoimmune encephalomyelitis (EAE); assay: PLP-induced experimental autoimmune encephalomyelitis (EAE) in SJL mice; type: in vivo
# Protocol: The PLP-induced experimental autoimmune encephalomyelitis (EAE) mouse model serves as a model of multiple sclerosis. On day O, SJL mice were immunized with 75 μg of PLP (139-151) emulsified in Freund's complete adjuvant (200 μl emulsion per mouse s.c. divided among four sites) and with pertussis toxin (200 ng, i.p.). The i.p. injection of pertussis toxin was repeated on day 2. Compound V was administered orally once a day at 25 mg/kg and 50 mg/kg, starting at day 0 and until 30 days post immunization, six times a week. […] Clinical grading of symptoms was carried out according to the following scale: 0=no illness, 1=flaccid tail, 2=moderate paraparesis, 3=severe paraparesis, 4=moribound state, 5=death.
# DNBS-induced colitis = DNBS-induced colitis in CD1 mice; type: in vivo; conditions: vs vehicle
# Protocol: The 2,4-dinitrobenzene sulfonic acid (DNBS) induced experimental colitis mouse model serves as a model of inflammatory bowel disease. On day 0, CD1 mice were sensitized with DNBS by intra-colinic instillation of 0.1 ml of an ethanolic solution (30%) of DNBS (40 mg/ml). Compound V was administered orally once a day for four consecutive days at 25 mg/kg and 50 mg/kg, starting one hour after sensitization with DNBS. On the fourth day, mice were sacrificed and 8 cm of the distal colon was collected and opened longitudinally for macroscopic evaluation.
# PGE2 production = assay: LPS-induced PGE2 production in J774A.1 cells (ELISA); type: cell-based; conditions: Mus musculus, J774.A1, 24 hr, FIG. 11
# Protocol: Effect of compounds on PGE2 production was measured by ELISA using J774A.1 cells stimulated by LPS. J774A.1 cells were cultured in the presence or absence of LPS and compound. Cells were cultured for 24 hr at 37° C. and thereafter the supernatants were collected for the determination of the concentration of PGE2 by ELISA as recommended by the manufacturer (GE Healthcare). Data was analyzed in Microsoft Excel software and the concentration of compound which inhibits 50% of PGE2 production (IC50) was calculated using Prism software.
# DA-3 breast tumor = assay: Primary DA-3 breast tumor in mice; type: in vivo; conditions: FIG. 4B; compound I IV 50 mg/kg, alone or with cyclophosphamide; up to day 35
# NZB×NZW mice = assay: Systemic lupus erythematosus model, NZB×NZW mice; type: in vivo; conditions: IV once a week from week 10 to week 46; FIG. 12
# From the text: New Zealand mice of the F1 hybrid cross NZB×NZW develop most of the autoimmune abnormalities seen in human SLE and die from SLE-like immune complex (IC)-mediated glomerulonephritis. The mice develop high titers of anti-DNA (double-strand and single-strand) and nuclear extract (NE) antibodies, as well as SLE-related clinical manifestations including leukopenia, thrombocytopenia, proteinuria, and glomerulonephritis. These mice develop anti-DNA antibodies after the age of three months, with a peak of anti-DNA antibody response occurring at seven months. Subsequently, the serum concentration of anti-DNA antibodies declines, presumably as a consequence of progressive uremia. The first serological manifestations of the disease occurs at about 150 days (i.e., five months). Their survival is evaluated at approximately 250 days.
# Intravenous administration of compound or vehicle was undertaken once a week from week 10 to week 46.
# [2] = test system: xenograft human prostate PC-3 tumor; assay: Xenograft human prostate PC-3 tumor in nude mice; type: in vivo, mouse; conditions: FIG. 10A; CD1 nu/nu mice; compound IV 5 mg/kg
# Protocol: PC-3 cells were grown in RPMI-1640 containing 10% fetal bovine serum. […] The animals were then serially monitored by manual palpation for evidence of tumor. […] Serial tumor volume was obtained by bi-dimensional diameter measurements with calipers, using the formula 0.4 (a×b^2) where “a” was the major tumor diameter and “b” the minor perpendicular diameter.
structure (smiles),measurement,setting,value
NCCCCCNc1nc(NCCc2ccc(O)cc2)nc(Nc2ccc(F)cc2)n1 [Compound V],PC-3 cell adhesion to laminin,PC-3 cells; FIG. 1A,inhibits PC-3 cells adhesion in a dose dependent fashion
same,PC-3 cell adhesion to MATRIGEL basement membrane matrix,PC-3 cells; FIG. 1B,inhibits PC-3 cells adhesion in a dose dependent fashion
same,PC-3 cell adhesion to collagen,PC-3 cells; FIG. 1C,inhibits PC-3 cells adhesion in a dose dependent fashion
same,activity on clinical signs of EAE,"[1]; oral 50 mg/kg, vs vehicle",significant activity
same,appearance of clinical signs of EAE,"[1]; oral once a day, 25 mg/kg and 50 mg/kg, until 30 days, FIG. 23",reduces in a dose dependent manner the appearance of signs of EAE
same,DNBS-induced macroscopic damage area of the colon mucosal tissue,"DNBS-induced colitis; oral 25 mg/kg and 50 mg/kg, FIG. 22",strong and significant decrease
same,body weight,"DNBS-induced colitis; oral once a day for four days, 25 mg/kg and 50 mg/kg",weak but significant increase of body weight
same,IC50,PGE2 production,2 µM
NCCCCCNc1nc(NCCc2ccc(O)cc2)nc(Nc2cccc(F)c2)n1 [Compound I],effect on DA-3 tumor growth,DA-3 breast tumor,weak inhibitory effect
same,mortality of NZB×NZW mice,NZB×NZW mice,reduces the mortality
NCCCCCNc1nc(NCCc2ccc(S(N)(=O)=O)cc2)nc(Nc2cccc(F)c2)n1 [Compound II],effect on PC-3 tumor growth,[2],cytostatic (no growth) effect up to day 42
